Earlier results on 4 molecules are cited in patent US20240216406A1, “METHODS AND COMPOSITIONS FOR SUPPORTING HUMAN HEALTH DURING SPACE TRAVEL” (Intrinsic Medicine, Inc., priority 2021, published 2024).

Read-outs that look alike come from different tables or passages of the source.

Data set [1] relates to mouse models of rheumatoid arthritis. The following applies: administered orally; mouse rheumatoid arthritis models with LPS challenge.
The next data set deals with local gut inflammation. The following applies: models of necrotizing enterocolitis and other inflammatory bowel diseases.
A further data set relates to E. Coli. The following applies: in the presence of the HMO.
Data set [2] has as its system murine and human derived macrophages. The following applies: in vitro.
The next data set deals with p65. The following applies: murine rheumatoid arthritis model.
The test system of data set [3] is PDL1, COX2, CCL2 (MCP1), CCL5.

On to sialyllactose, for which, in data set [1], the “clinical assessments of disease” value is on record as “benefit in clinical assessments of disease”.
Turning to `CC1O[C@@H](OC2[C@H](O[C@@H]3C(CO)OC(O)C(O)C3O)OC(CO)[C@H](O)[C@@H]2O)C(O)[C@@H](O)[C@@H]1O` (some centres unmarked) [2′FL, 2′-fucosyllactose], in the data set on local gut inflammation, the local gut inflammation entry is given as “reduction of local gut inflammation”. Besides, the “gut epithelial barrier function” value in the data set on gut epithelial barrier is on record as “positive effects on gut epithelial barrier function”. Also, in the data set on TNFα and IL-8, the “TNFα and IL-8” value is “reduction in TNFα and IL-8”. For the same molecule, the “E. Coli adhesion to Caco-2 cells” value with E. Coli was “reduction of E. Coli adhesion”.
As to `CC(=O)N[C@H]1C([C@H](O)[C@H](O)CO)O[C@@](OCC2O[C@@H](O[C@@H]3C(CO)O[C@@H](O)C(O)[C@H]3O)C(O)[C@@H](O)[C@H]2O)(C(=O)O)C[C@H]1O` (some centres unmarked) [6′SL, 6′-sialyllactose], in data set [2], the “IL-1β, IL-2, IL-4, IL-6, IL-12, IFN γ or TNF-α” value is recorded as “reductions”. The “E. Coli adhesion to Caco-2 cells” value with E. Coli is listed as “reduction of E. Coli adhesion”.
Take `CC(=O)N[C@H]1C([C@H](O)[C@H](O)CO)O[C@@](O[C@@H]2C(O)[C@H](O[C@@H]3C(CO)O[C@@H](O)C(O)[C@H]3O)OC(CO)[C@@H]2O)(C(=O)O)C[C@H]1O` (some centres unmarked) [3′SL, 3′-sialyllactose]: the “phosphorylation of p65 (NF-kB signaling pathway)” value in the data set on p65 is reported as “inhibited phosphorylation of p65”. Also, the “IL-1β, IL-2, IL-4, IL-6, IL-12, IFN γ or TNF-α” value in data set [2] is on record as “reductions”; in data set [2] (listed as 3′-SL), “more significant reductions”. The “PDL1, COX2 and select chemokines such as CCL2 (MCP1) and CCL5” value in data set [3] is “reduce other key target proteins”.
